# US20230022724A1, “NOVEL IMIDAZOPYRAZINE DERIVATIVES” (Hoffmann-La Roche Inc., priority 2018, published 2023)
# Counter-ions that a name gives are not always drawn.
# Tested on: Acinetobacter baumannii ATCC17978
# Test: Antimicrobial susceptibility testing: 90% growth inhibitory concentration (IC90) determination
# Format: cell-based
# Conditions: 90% growth inhibitory concentration, Acinetobacter baumannii ATCC17978, Iso-Sensitest broth, OD 600 nm over 16 h; hydrochloride; read-out: ATCC17978 IC90
# Procedure: The in vitro antimicrobial activity of the compounds was determined according to the following procedure:
# The assay used a 10-points Iso-Sensitest broth medium to measure quantitatively the in vitro activity of the compounds against Acinetobacter baumannii ATCC17978 and Acinetobacter baumannii ATCC17961.
# Stock compounds in DMSO were serially twofold diluted (e.g. range from 50 to 0.097 μM final concentration) in 384 wells microtiter plates and inoculated with 49 μl the bacterial suspension in Iso-Sensitest medium to have a final cell concentration of ˜5×10^(5) CFU/ml in a final volume/well of 50 ul/well. Microtiter plates were incubated at 35±2° C.
# Bacterial cell growth was determined with the measurement of optical density at λ=600 nm each 20 minutes over a time course of 16 h. Growth inhibition was calculated during the logarithmic growth of the bacterial cells with determination of the concentration inhibiting 50% (IC50) and 90% (IC90) of the growth.
# Table 1 provides the 90% growth inhibitory concentrations (IC90) in micromoles per liter of the compounds of present invention obtained against the strain Acinetobacter baumannii ATCC17978 and Acinetobacter baumannii ATCC17961.
row,IC90 [nM],SMILES
1,130,"COc1ccc(-c2cnc3c(Nc4ccc(C(=O)N5CCC(C(=O)NCC6CNC6)CC5)c(Cl)c4)nccn23)cc1F [Example 54, N-(azetidin-3-ylmethyl)-1-[2-chloro-4-[[3-(3-fluoro-4-methoxyphenyl)imidazo[1,2-a]pyrazin-8-yl]amino]benzoyl]piperidine-4-carboxamide;hydrochloride]"

# Same assay, conditions: 90% growth inhibitory concentration, Acinetobacter baumannii ATCC17978, Iso-Sensitest broth, OD 600 nm over 16 h; read-out: ATCC17978 IC90
row,IC90 [nM],SMILES
1,150,"CNCC(=O)N1CCN(C(=O)c2ccc(Nc3nccn4c(-c5ccc(OC)c(F)c5)cnc34)cc2Cl)CC1 [Example 40, 1-(4-(2-chloro-4-((3-(3-fluoro-4-methoxyphenyl)imidazo [1,2-a]pyrazin-8-yl)amino)benzoyl)piperazin-1-yl)-2-(methylamino)ethanone]"

# Same assay, conditions: Acinetobacter baumannii, ATCC17978, 16 h, 90% growth inhibitory concentration, Acinetobacter baumannii ATCC17978, Iso-Sensitest broth, OD 600 nm over 16 h; read-out: ATCC17978 IC90
row,IC90 [nM],SMILES
1,1500,"N#Cc1cc(Nc2nccn3c(-c4ccc(OC(F)F)cc4)cnc23)ccc1C(=O)N1CCC(CN)CC1 [Example 27, 2-(4-(aminomethyl)piperidine-1-carbonyl)-5-((3-(4-(difluoromethoxy)phenyl)imidazo[1,2-a]pyrazin-8-yl)amino)benzonitrile]"
2,140,"COc1ccc(-c2cnc3c(Nc4ccc(C(=O)N5CCC(O)(CCN(C)C)CC5)c(Cl)c4)nccn23)cc1F [Example 28, (2-chloro-4-((3-(3-fluoro-4-methoxyphenyl)imidazo[1,2-a]pyrazin-8-yl)amino)phenyl)(4-(2-(dimethylamino)ethyl)-4-hydroxypiperidin-1-yl)methanone]"
3,190,"N#CCOc1ccc(-c2cnc3c(Nc4ccc(C(=O)N5CCC(C(=O)N6CCNCC6CO)CC5)c(Cl)c4)nccn23)c(F)c1F (centres unmarked) [Example 30, 2-[4-[8-[3-chloro-4-[4-[2-(hydroxymethyl)piperazine-1-carbonyl]piperidine-1-carbonyl]anilino]imidazo[1,2-a]pyrazin-3-yl]-2,3-difluoro-phenoxy]acetonitrile trifluoroacetate]"
4,320,"N#CCOc1ccc(-c2cnc3c(Nc4ccc(C(=O)N5CCC(C(=O)N6CCNCC6CO)CC5)c(Cl)c4)nccn23)c(Cl)c1F (centres unmarked) [Example 31, 2-[3-chloro-4-[8-[3-chloro-4-[4-[2-(hydroxymethyl)piperazine-1-carbonyl]piperidine-1-carbonyl]anilino]imidazo[1,2-a]pyrazin-3-yl]-2-fluoro-phenoxy]acetonitrile trifluoroacetate]"
5,300,"CNCCNC(=O)C1CCN(C(=O)c2ccc(Nc3nccn4c(-c5ccc(OCC#N)c(F)c5F)cnc34)cc2Cl)CC1 [Example 32, 1-[2-chloro-4-[[3-[4-(cyanomethoxy)-2,3-difluoro-phenyl]imidazo[1,2-a]pyrazin-8-yl]amino]benzoyl]-N-[2-(methylamino)ethyl]piperidine-4-carboxamide trifluoroacetate]"
6,41,"N#CCOc1ccc(-c2cnc3c(Nc4ccc(C(=O)N5CCN(C(=O)N6CCN[C@@H](CO)C6)CC5)c(Cl)c4)nccn23)c(F)c1F [Example 36, 2-[4-[8-[3-chloro-4-[4-[(3R)-3-(hydroxymethyl)piperazine-1-carbonyl]piperazine-1-carbonyl]anilino]imidazo[1,2-a]pyrazin-3-yl]-2,3-difluoro-phenoxy]acetonitrile]"
7,570,"COc1ccc(-c2cnc3c(Nc4ccc(C(=O)N5CCOCC5)cc4)nccn23)cc1Cl [Example 38, (4-((3-(3-chloro-4-methoxyphenyl)imidazo[1,2-a]pyrazin-8-yl)amino)phenyl)(morpholino)methanone]"
8,200,"COc1ccc(-c2cnc3c(Nc4ccc(C(=O)N5CCC(C(=O)N[C@@H]6CCNC6)CC5)c(Cl)c4)nccn23)c(F)c1F [Example 39, (R)-1-(2-chloro-4-((3-(2,3-difluoro-4-methoxyphe-nyl)imida-zo[1,2-a]pyrazin-8-yl)amino)benzoyl)-N-(pyrrolidin-3-yl)piperidine-4-carboxamide hydrochloride]"
9,140,"COc1ccc(-c2cnc3c(Nc4ccc(C(=O)N5CCN(CCNCCO)CC5)c(Cl)c4)nccn23)cc1F [Example 43, (2-Chloro-4-((3-(3-fluoro-4-methoxyphenyl)imidazo[1,2-a]pyrazin-8-yl)amino)phenyl)(4-(2-((2-hydroxyethyl)amino)ethyl)piperazin-1-yl)methanone]"
10,230,"NCC1CCN(C(=O)c2ccc(Nc3nccn4c(-c5ccc(OC(F)F)cc5)cnc34)cc2I)CC1 [Example 51, [4-(aminomethyl)piperidin-1-yl]-[4-[[3-[4-(difluoromethoxy)phenyl]imidazo[1,2-a]pyrazin-8-yl]amino]-2-iodophenyl]methanone; hydrochloride]"
11,140,"COc1ccc(-c2cnc3c(Nc4ccc(C(=O)N5CCN(CCN(C)C)CC5)c(Cl)c4)nccn23)cc1F [Example 55, [2-chloro-4-[[3-(3-fluoro-4-methoxyphenyl)imidazo[1,2-a]pyrazin-8-yl]amino]phenyl]-[4-[2-(dimethylamino)ethyl]piperazin-1-yl]methanone;hydrochloride]"

# Same assay, conditions: Acinetobacter baumannii, ATCC17978, 16 h, read-out: ATCC17978 IC90
row,SMILES,IC90 [nM]
1,"N#CCOc1ccc(-c2cnc3c(Nc4ccc(C(=O)N5CCN(C(=O)[C@@H]6C[C@@H](O)CN6)CC5)c(Cl)c4)nccn23)c(F)c1F [Example 34, 2-[4-[8-[3-chloro-4-[4-[(2S,4R)-4-hydroxypyrrolidine-2-carbonyl]piperazine-1-carbonyl]anilino]imidazo [1,2-a]pyrazin-3-yl]-2,3-difluroo-phenoxy]acetonitrile formate]",31
2,"CC(C#N)Oc1ccc(-c2cnc3c(Nc4ccc(C(=O)N5CCN(CCN(C)C)CC5)c(Cl)c4)nccn23)c(F)c1F (centres unmarked) [Example 41, 2-[4-[8-[3-chloro-4-[4-[2-(dimethylamino)ethyl]piperazine-1-carbonyl]anilino]imi-dazo[1,2-a]pyrazin-3-yl]-2,3-difluoro-phenoxy]propanenitrile formate]",130
3,"CC(C#N)Oc1ccc(-c2cnc3c(Nc4ccc(C(=O)N5CCN(CCCN(C)C)CC5)c(Cl)c4)nccn23)c(F)c1F (centres unmarked) [Example 42, 2-[4-[8-[3-chloro-4-[4-[3-(dimethylamino)pro-pyl]piperazine-1-carbonyl]anilino]imi-dazo[1,2-a]pyrazin-3-yl]-2,3-difluoro-phenoxy]propanenitrile]",200
4,"CNCCNC(=O)C1CCN(C(=O)c2ccc(Nc3nccn4c(-c5ccc(OC)c(F)c5)cnc34)cc2Br)CC1 [Example 44, 1-(2-bromo-4-((3-(3-fluoro-4-methoxyphenyl)imidazo[1,2-a]pyrazin-8-yl)amino)benzoyl)-N-(2-(methylamino)ethyl)piperidine-4-carboxamide; Formic Acid]",300
5,"N#CCOc1ccc(-c2cnc3c(Nc4ccc(C(=O)N5CCC(C(=O)N6CCN[C@H](C(=O)O)C6)CC5)c(Cl)c4)nccn23)c(F)c1F [Example 45, (2S)-4-[1-[2-chloro-4-[[3-[4-(cyanomethoxy)-2,3-difluoro-phenyl]imidazo[1,2-a]pyrazin-8-yl]amino]benzoyl]piperidine-4-carbonyl]piperazine-2-carboxylic Acid; Formic Acid]",880
6,"N#CCOc1ccc(-c2cnc3c(Nc4ccc(C(=O)N5CCC(C(=O)N6CCN[C@@H](C(=O)O)C6)CC5)c(Cl)c4)nccn23)c(F)c1F [Example 46, (R)-4-(1-(2-chloro-4-((3-(4-(cyanomethoxy)-2,3-difluorophenyl)imidazo[1,2-a]pyrazin-8-yl)amino)benzoyl)piperidine-4-carbonyl)piperazine-2-carboxylic Acid; Formic Acid]",890
7,"N#CCOc1ccc(-c2cnc3c(Nc4ccc(C(=O)N5CCN(CCN6CCC(C(=O)O)C6)CC5)c(Cl)c4)nccn23)c(F)c1F (centres unmarked) [Example 47, 1-[2-[4-[2-chloro-4-[[3-[4-(cyanomethoxy)-2,3-difluoro-phenyl]imidazo[1,2-a]pyrazin-8-yl]amino]benzoyl]piperazin-1-yl]ethyl]pyrrolidine-3-carboxylic Acid Trifluoroacetate]",430
8,"COc1ccc(-c2cnc3c(Nc4ccc(C(=O)N5CCC(C(=O)N6CCOC(CN)C6)CC5)c(Cl)c4)nccn23)cc1F (centres unmarked) [Example 52, [4-[2-(aminomethyl)morpholine-4-carbonyl]piperidin-1-yl]-[2-chloro-4-[[3-(3-fluoro-4-methoxyphenyl)imidazo[1,2-a]pyrazin-8-yl]amino]phenyl]methanone; hydrochloride]",88
9,"CNCC(=O)N1CCN(C(=O)c2ccc(Nc3nccn4c(-c5ccc(OC)c(F)c5F)cnc34)cc2Cl)CC1 [Example 53, 1-[4-[2-chloro-4-[[3-(2,3-difluoro-4-methoxyphenyl)imidazo[1,2-a]pyrazin-8-yl]amino]benzoyl]piperazin-1-yl]-2-(methylamino)ethanone; hydrochloride]",56
10,"COc1ccc(-c2cnc3c(Nc4ccc(C(=O)N5CCN(C(=O)C(O)CN)CC5)c(Cl)c4)nccn23)cc1F (centres unmarked) [Example 56, 3-amino-1-[4-[2-chloro-4-[[3-(3-fluoro-4-methoxyphenyl)imidazo[1,2-a]pyrazin-8-yl]amino]benzoyl]piperazin-1-yl]-2-hydroxypropan-1-one; hydrochloride]",240
